Assay results: patent US5658880A, “Sialic acid/fucose based medicaments” (Glycomed Incorporated, priority 1994, dated 1997)

Tested on: P-selectin
Assay: ELISA: inhibition of P-selectin-IgG chimera binding to 2,3 sLe^x glycolipid
Set-up: species or system human
Details: inhibition of binding to 2,3 sLex glycolipid
Description: (§1) An ELISA assay is preferably used that employs recombinant fusion proteins composed of extracellular portions of the human selectins joined to human immunoglobulin heavy chain CH3, CH2, and hinge regions. See, for example, Walz et al., Science (1990) 250:1132; Aruffo et al., Cell (1991) 67:35; Aruffo et al., Proc. Natl. Acad. Sci. USA. (1992) 89:2292. The assay is well known in the art, and generally consists of the following three steps:
I. 2,3 sLe^x glycolipid (25 picomole/well) was transferred into microtiter wells as solutions and then evaporated off. Excess, which remained unattached, was washed off with water. The wells were then blocked with 5% BSA at room temperature for an hour and then washed with PBS containing 1 mM calcium.
II. Preparation of "multivalent" receptor of the Selectin-lgG chimera was carried out by combining the respective chimera (1 μg/mL) with biotin labelled goat F(ab')2 anti-human IgG (Fc specific) and streptavidin-alkaline phosphatase diluted 1:1000 in 1% BSA-PBS (1 mM calcium) and incubating at 37° C. for 15 min. This allowed the soluble multivalent receptor complex to form. III. Potential inhibitors such as the compounds of formula I or II were allowed to react with the soluble receptor at 37° C. for 45 min. This test assumes that optimal binding, between the soluble phase receptor complex and the inhibitor (non natural ligand), would have occurred within this time frame. This solution was then placed in the microtiter wells that were prepared in step I. The plate was incubated at 37° C. for 45 minutes to allow the soluble receptor to bind to its natural ligand. In the presence of a strong inhibitor only a few receptors should be free to bind to the microtiter plate coated with the natural ligand.
The positive control is the signal produced by the soluble receptor when it is allowed to react with 2,3 sLe^x glycolipid in the microtiter wells in the absence of any inhibitor. This positive control was considered 100% binding. The signal produced by the receptor that had been previously treated with an inhibitor (recorded as O.D.), was divided by the signal produced by the positive control and multiplied by 100 to calculate the % receptor bound to the well in the presence of the inhibitor. The reciprocal of this number is the % inhibition.
as §1, with “was employed” for “is preferably used”, “uses” for “employs”, “USA” for “USA.”
II. Preparation of "multivalent" receptor of the Selectin-IgG chimera was carried out by combining the respective chimera 1 μg/ml) with biotin labelled goat F(ab')2 anti-human IgG (Fc specific) and streptavidin-alkaline phosphatase diluted 1:1000 in 1% BSA-PBS (1 mM calcium) and incubating at 37° C. for 15 min. This allowed the soluble multivalent receptor complex to form.
III. Potential inhibitors such as compounds of formula I or II were allowed to react with the soluble receptor at 37° C. for 45 min. This test assumes that optimal binding, between the soluble phase receptor complex and the inhibitor (non natural ligand), would have occurred within this time frame. This solution was then placed in the microtiter wells that were prepared in step I. The plate was incubated at 37° C. for 45 minutes to allow the soluble receptor to bind to its natural ligand. In the presence of a strong inhibitor only a few receptors should be free to bind to the microtiter plate coated with the natural ligand.
The positive control is the signal produced by the soluble receptor when it is allowed to react with 2,3 sLe^x glycolipid in the microtiter wells in the absence of any inhibitor. This was considered 100% binding. […]

CC(=O)NC1C(O)CC(OCCCCCCOC2OC(C)C(O)C(O)C2O)(C(=O)O)OC1C(O)C(O)CO [Compound 7, 1-O-α-Neu5Ac-(6-O-α-L-Fucopyranosyl)-Hexane]
IC50: > 4 mM
